# Results as given in patent publication US10232023B2, “Methods for treatment of and prophylaxis against inflammatory disorders” (THE UNIVERSITY OF UTAH RESEARCH FOUNDATION, priority 2013, dated 2019).
# What was measured:
# [1] = system: LPS-stimulated human PMNs; experiment: Reactive oxygen species generation, dihydrorhodamine assay; assay type: cell-based; settings: 1 nM, 1 hour pre-incubation; LPS 100 ng/mL
# Experimental: Human PMNs isolated from healthy adult whole blood were resuspended to a concentration of 2×10^6 cells/mL in M-199 media and pre-incubated±[…] (1 nM) or SCR (1 nM) peptide for 1 hour under standard conditions. The PMNs were then stimulated with LPS (100 ng/mL) for 1 hour, washed, and resuspended with a dihydrorhodamine (7.25 mM; D-632, MOLECULAR PROBES) and catalase (1000 Units/mL; C-40, SIGMA) mixture and incubated at 37° C. for 10 minutes. After incubation, samples were placed at 4° C. and analyzed for ROS-dependent fluorescence using a BECTON-DICKINSON FACSCAN device equipped with CELLQUEST software.
# [2] = system: C57BL6 mice, intraperitoneal injection of LPS; experiment: Survival after intraperitoneal LPS; assay type: in vivo, mouse; settings: LPS 20 mg/kg IP; 10 mcg/kg/dose IP, 1 hour prior and 6 hours after; vs LPS+scrambled peptide, p=0.02
# Experimental: FIG. 10A is a graph tracking survival of C57BL6 mice in various treatment arms following intraperitoneal injection of LPS (20 mg/kg). CRISPP-treated mice (10 mcg/kg/dose) received 2 doses intraperitoneally; one given 1 hour prior to infection and one dose given 6 hours after infection. The same dose, delivery route, and schedule were followed for the scrambled peptide control mice. Six mice were assessed in both groups.
# Survival of outbred Swiss mice was tracked in various treatment arms following intraperitoneal injection of either LPS (20 mg/kg) or E. coli (4×10^7 bacteria), as shown in FIGS. 10A and 10B. […] Six mice were assessed in both groups: LPS+CRISPP and LPS+scrambled control peptide. […] Ten mice were assessed in each group: no treatment, E. coli+CRISPP, and E. coli+scrambled control peptide. […] Referring to FIG. 11, CRISPP was also evaluated in a murine model of polymicrobial infection caused by cecal ligation and puncture (CL/P). […] Ten mice were assessed in each of the CL/P groups. […]
# Animals were treated with CRISPP (10 mg/kg), nNIF (10 mg/kg), or SCR (10 mg/kg) by i.p. injection 1 hour prior to and 6 hours after infection (E. coli, 4.5×10^7 cfu/mouse, i.p. injection) or stimulation (LPS, 25 mg/kg, i.p. injection). […] Survival was assessed over 6 days at 6 hour to 12 hour intervals.
substance,measurement,setting,value
"Cancer-Associated SCM-Recognition, Immune Defense Suppression, and Serine Protease Protection Peptide [CRISPP, nNIF-related peptide (nNRP)]",Reactive oxygen species generation,[1],did not significantly inhibit
same,Survival,[2],statistically greater
